“Also recorded” adds a separate entry of the source.
How the values were obtained:
[1] = test system: bone marrow-derived macrophages; experiment: LPS-induced cytokines in bone marrow-derived macrophages; type: cell-based, mouse
Protocol: Additional tests were conducted to determine whether SFN-Cys also suppresses TNF-α and IL-6 expression at the mRNA level. […] Thioglycollate-elicited mouse peritoneal macrophages were prepared from C57BL (8-10 weeks old) and cultured in RPMI 1640 with 10% (v/v) FCS Bone marrow-derived macrophages were generated in RPMI medium containing M-CSF (10 ng/mL) according to previously published procedure. For cytokine ELISA assay, cells were seeded at 5×10^5 in 12-well plates, whereas for mRNA expression, the cells were seeded at […]. LPS and used at a dose of 100 ng/mL. Similarly. SFN-Cys was used at a concentration of 1.5 umol/L.

[2] = Blood tests on plasma after 21 days of SFN-Cys diet; type: in vivo; conditions: mice, diet 7.5 mg/kg food, mean±SEM
Protocol: (§1) To strengthen this conclusion, extensive measurements were conducted on plasma levels of key parameters of kidney and liver toxicities in addition to the lipid and carbohydrate profiles.
(§2) For dietary treatment with SFN-Cys, the SFN-Cys was mixed with a powdered diet (7.5 mg of SFN-Cys per kg of food). The estimated dose delivered by this diet was about 1.0-1.5 mg/kg. The diet was stored at 4° C. and the feeders were refilled daily. Control animals received diet alone. Body weights were recorded twice a week and at the termination of the study, blood was drawn in EDTA-containing tubes, plasma was collected by centrifugation and stored at −80° C. until analysis.
Blood tests were performed on hemolysis free plasma samples obtained from animals receiving 21 days of a normal diet or a diet containing 7.5 mg/kg food of SFN-Cys using commercially available kits.

[3] = test system: heme oxygenase (HO); experiment: mRNA expression of Nrf2 target gene HO in fibroblasts; type: cell-based, rat; conditions: diabetic fibroblasts, 1.5 μM
Protocol: (§3) To better characterize how SFN-Cys impacts cellular antioxidant levels, the ability of SFN-Cys to regulate the transcription factor nuclear factor erythroid 2-related factor 2 (Nrf2) was assessed, which is a master regulator of the antioxidative stress response that induces the expression of antioxidant proteins such as heme oxygenase (HO) and NAD(P)H dehydrogenase (quinine; NQO1) and key enzymes in the glutathione system. In this context, Nrf2 transcriptional activity was first measured using a vector encoding luciferase driven by the NQO1 promoter. […] Administration of SNF-Cyst at the above indicated concentration (1.5 μM, the lowest effective concentration) ameliorated diabetes-induced suppression of the Nrf2 activity and Nrf2-target genes including HO and NQO1 (FIG. 2A-D).
(§4) Total RNA from cells or frozen sponge implants was extracted using the Trizol reagent (Invitrogen), and the RNA integrity was verified by agarose gel electrophoresis. […] The amplified sequences were assessed using the ABI 7500 Prism Sequence Detection system machine. The results were expressed as mRNA levels normalized to 18S or GAPDH in each sample.

[4] = test system: Nrf2; experiment: Nrf2 activity (NQO1-ARE luciferase) in fibroblasts; type: cell-based, rat
Protocol: as §3
CF and DF were transfected with the antioxidative stress response element ARE-luciferase and pRenilla vectors using lipofectamine 2000 (Invitogen, USA). In this context, cells were plated and transfected in 12-well plates. Following treatment with SFN-Cys, cells were lysed and firefly and Renilla luciferase activity was determined using Dual luciferase assay (Promega, USA).

[5] = test system: TNF-α; experiment: Cytokine ELISA, LPS-stimulated peritoneal macrophages (TNF-α); type: cell-based, mouse
Text: This was exemplified in the current study by the ability of SFN-CYS to inhibit lipopolysaccharide (LPS)-induced peritoneal macrophages and bone marrow-derived macrophages to produce tumor necrosis factor-α (TNF-α) and interlukin-6 (IL-6). TNF-α and IL-6 are two of the major inflammatory mediators that contribute to the pathogenesis of low-grade inflammation; a phenomenon which is commonly associated with the diabetic state. […] Pre-treatment with SFN-Cys inhibited the expression of LPS-induced TNF-α and IL-6 protein at a therapeutic dose of 1.5 μM (FIGS. 1A and 1B).
(§5) Thioglycollate-elicited mouse peritoneal macrophages were prepared from C57BL (8-10 weeks old) and cultured in RPMI 1640 with 10% (v/v) FCS Bone marrow-derived macrophages were generated in RPMI medium containing M-CSF (10 ng/mL) according to previously published procedure. For cytokine ELISA assay, cells were seeded at 5×10^5 in 12-well plates, whereas for mRNA expression, the cells were seeded at […]. LPS and used at a dose of 100 ng/mL. Similarly. SFN-Cys was used at a concentration of 1.5 umol/L.
For cytokine ELISA, supernatants from cultured macrophages were collected in response to treatment with SFN and SFN-Cys for 6 h. The total TNF-α and TL-6 were measured by enzyme-linked immunosorbent assay (ELISA) using kits (R&D system, USA) according to the manufacturer's protocols.

[6] = test system: transforming growth factor beta (TGF-β); experiment: TGF-β expression (cardiac fibrosis); type: in vivo
Text: Therapeutic rational was considered for SFN-Cys effectiveness in the following pathological conditions: Sarcopenia-SFN-Cys increased muscle weight in diabetic mice, see FIGS. 4A and 4B; Cardiac fibrosis-SFN-Cys inhibits transforming growth factor beta (TGF-β) expression, see FIG. 4C; Erectile dysfunction-SFN-Cys increased endothelial nitric oxide activity and expression in corpus cavernosum.

[7] = test system: heme oxygenase; experiment: Tissue mRNA expression of heme oxygenase after SFN-Cys diet; type: in vivo; conditions: heart, kidney, liver and skin; SFN-Cys diet 1.5-2.5 μmol/mouse, 21 days
Protocol: (§6) Testing the pharmacodynamic and toxicodynamic properties of SFN-Cys dictated the mixing SFN-Cys with a powdered diet. The estimated dose delivered by this diet was 1.5-2.5 μmol/mouse (n=4). The SFN-Cys diet was stored at 4° C. and the feeders were refilled daily for the duration of the study (21 days). Corresponding animals received food without the drug.
as §2, §4

[8] = test system: NQO1; experiment: Tissue mRNA expression of NQO1 after SFN-Cys diet; type: in vivo; conditions: heart, kidney, liver and skin; SFN-Cys diet 1.5-2.5 μmol/mouse, 21 days
Protocol: as §6, §2, §4

[9] = Toxicity assessment of chronically administered SFN-Cys (body weight, behavior); type: in vivo, mouse; conditions: mice, 21 days
Protocol: as §6, §1, §2

[10] = test system: TNF-α; experiment: Real-time PCR, LPS-induced TNF-α mRNA in peritoneal macrophages; type: cell-based, mouse; conditions: LPS 100 ng/mL, 1.5 umol/L, RT-PCR
Protocol: Additional tests were conducted to determine whether SFN-Cys also suppresses TNF-α and IL-6 expression at the mRNA level.
as §5
Total RNA from cells or frozen sponge implants was extracted using the Trizol reagent (Invitrogen), and the RNA integrity was verified by agarose gel electrophoresis. Approximately 1 μg of RNA was reverse transcribed (Superscript II Reverse Transcriptase Kit, Invitrogen) and amplified using the TaqMan Assay on Demand (Applied Biosystems) in a 25 μL reaction volume containing two unlabeled primers, a 6-carboxyfluorescien-labeled TaqMan MGB probe and the master mix. The amplified sequences were assessed using the ABI 7500 Prism Sequence Detection system machine. The results were expressed as mRNA levels normalized to 18S or GAPDH in each sample.

Question: What does the source list for `C[S+]([O-])CCCCNC(=S)SCC(N)C(=O)O` (stereo not shown) [SFN-Cys, Sulforaphane-Cysteine]?
Answer: suppression of LPS-induced TNF-α and IL-6 in bone marrow-derived macrophages [1]: analogous results were also seen; Plasma Alanine aminotransferase [2]: 44.5 ± 17 IU/L; Plasma Alkaline phosphatase [2]: 27 ± 15 IU/L; Plasma Aspartate aminotransferase [2]: 172 ± 25 IU/L; Plasma Creatinine [2]: 8.87 ± 0.91 µmol/L; Plasma Free fatty acid [2]: 0.41 ± 0.14 mmol/L; Plasma Glucose [2]: 5.87 ± 0.90 mmol/L; Plasma Ketone bodies [2]: 0.079 ± 0.01 mmol/L; Plasma Total bilirubin [2]: 4.23 ± 0.48 µmol/L; Plasma Total cholesterol [2]: 2.15 ± 0.42 mmol/L; Plasma Triglyceride [2]: 1.15 ± 0.25 mmol/L; mRNA expression of Nrf2 target gene HO [3]: ameliorated; Nrf2 transcriptional activity (NQO1 promoter luciferase) ([4]; DF and CF-GP, 1.5 μM): ameliorated; lowest effective concentration ([4]; fibroblasts, Nrf2 activity and Nrf2-target genes): 1.5 µM; anti-inflammatory activity (overall, SFN-Cys compared with SFN) ([5]; LPS-stimulated macrophages, mouse model of type 2 diabetes): exhibited anti-inflammatory and antioxidant activities; also recorded: more potent than SFN; expression of LPS-induced TNF-α protein ([5]; peritoneal macrophages, LPS 100 ng/mL 6 hours, pre-treatment 1.5 μM, ELISA): inhibited; TGF-β expression [6]: inhibits; mRNA expression of heme oxygenase relative to control [7]: about 3 folds; mRNA expression of NQO1 relative to control [8]: about 3 folds; body weight ([9]; SFN-Cys diet, in g (unit assumed)): 22.7±3.2; signs of adverse effect (body weight and behavior) ([9]; chronic SFN-Cys diet): no obvious signs of adverse effect; LPS-induced TNF-α mRNA up-regulation [10]: significantly inhibited

Source: US12251366B1, “Sulforaphane-cysteine for wound healing in diabetic subjects” (KUWAIT UNIVERSITY, priority 2024, dated 2025)
